Test results taken from the NIST ThermoML archive (doi:10.1016/j.jct.2012.06.030).

Assay: excess molar enthalpy (molar enthalpy of mixing); xn = mol fraction of the nth substance listed
Conditions: 101 kPa, Liquid, isothermal titration calorimeter

CCCCCC[n+]1ccc2ccccc2c1.N#C[S-] [2-hexylisoquinolinium thiocyanate] + O
Conditions | excess molar enthalpy [kcal/mol]
303.15 K, x1 = 0.2511 | 0.0803
303.15 K, x1 = 0.2663 | 0.0805
303.15 K, x1 = 0.2835 | 0.0772
303.15 K, x1 = 0.3031 | 0.071
303.15 K, x1 = 0.3255 | 0.0609
303.15 K, x1 = 0.3483 | 0.048
303.15 K, x1 = 0.3744 | 0.032
303.15 K, x1 = 0.4001 | 0.0169
303.15 K, x1 = 0.4295 | 0.000844
303.15 K, x1 = 0.4576 | -0.0129
303.15 K, x1 = 0.4895 | -0.0268
303.15 K, x1 = 0.5184 | -0.0375
303.15 K, x1 = 0.5509 | -0.0473
303.15 K, x1 = 0.578 | -0.054
303.15 K, x1 = 0.6079 | -0.0595
303.15 K, x1 = 0.641 | -0.0638
303.15 K, x1 = 0.6779 | -0.066
303.15 K, x1 = 0.7193 | -0.0655
303.15 K, x1 = 0.7496 | -0.0636
303.15 K, x1 = 0.7826 | -0.0598
303.15 K, x1 = 0.8185 | -0.054
303.15 K, x1 = 0.858 | -0.0464
303.15 K, x1 = 0.872 | -0.0421
303.15 K, x1 = 0.8864 | -0.037
303.15 K, x1 = 0.9014 | -0.0318
303.15 K, x1 = 0.9168 | -0.027
303.15 K, x1 = 0.9328 | -0.0221
303.15 K, x1 = 0.9494 | -0.0165
303.15 K, x1 = 0.9666 | -0.0104
303.15 K, x1 = 0.9844 | -0.00416
308.15 K, x1 = 0.0931 | 0.0332
308.15 K, x1 = 0.0953 | 0.0339
308.15 K, x1 = 0.0976 | 0.0347
308.15 K, x1 = 0.1 | 0.0355
308.15 K, x1 = 0.1025 | 0.0363
308.15 K, x1 = 0.1052 | 0.0372
308.15 K, x1 = 0.1081 | 0.0381
308.15 K, x1 = 0.111 | 0.0391
308.15 K, x1 = 0.1142 | 0.0401
308.15 K, x1 = 0.1175 | 0.0412
308.15 K, x1 = 0.1211 | 0.0423
308.15 K, x1 = 0.1248 | 0.0436
308.15 K, x1 = 0.1284 | 0.0447
308.15 K, x1 = 0.1321 | 0.0459
308.15 K, x1 = 0.1361 | 0.0473
308.15 K, x1 = 0.1403 | 0.0486
308.15 K, x1 = 0.1448 | 0.0501
308.15 K, x1 = 0.1496 | 0.0516
308.15 K, x1 = 0.1547 | 0.0533
308.15 K, x1 = 0.1602 | 0.0551
308.15 K, x1 = 0.166 | 0.057
308.15 K, x1 = 0.1723 | 0.0589
308.15 K, x1 = 0.1792 | 0.0612
308.15 K, x1 = 0.1865 | 0.0636
308.15 K, x1 = 0.1945 | 0.0661
308.15 K, x1 = 0.2033 | 0.069
308.15 K, x1 = 0.2128 | 0.0718
308.15 K, x1 = 0.2233 | 0.0744
308.15 K, x1 = 0.2349 | 0.076
308.15 K, x1 = 0.2478 | 0.0778
308.15 K, x1 = 0.2621 | 0.0795
308.15 K, x1 = 0.2782 | 0.0785
308.15 K, x1 = 0.2941 | 0.0754
308.15 K, x1 = 0.3119 | 0.0706
308.15 K, x1 = 0.332 | 0.063
308.15 K, x1 = 0.3549 | 0.0511
308.15 K, x1 = 0.3772 | 0.0372
308.15 K, x1 = 0.4025 | 0.0214
308.15 K, x1 = 0.4262 | 0.00743
308.15 K, x1 = 0.4529 | -0.00703
308.15 K, x1 = 0.4767 | -0.0189
308.15 K, x1 = 0.5032 | -0.0306
308.15 K, x1 = 0.5328 | -0.0421
308.15 K, x1 = 0.5573 | -0.05
308.15 K, x1 = 0.5841 | -0.0571
308.15 K, x1 = 0.6137 | -0.0629
308.15 K, x1 = 0.6464 | -0.0672
308.15 K, x1 = 0.6827 | -0.0693
308.15 K, x1 = 0.7091 | -0.0693
308.15 K, x1 = 0.7376 | -0.0674
308.15 K, x1 = 0.7685 | -0.0641
308.15 K, x1 = 0.802 | -0.059
308.15 K, x1 = 0.8213 | -0.0557
308.15 K, x1 = 0.8416 | -0.0519
308.15 K, x1 = 0.8628 | -0.0471
308.15 K, x1 = 0.883 | -0.0418
308.15 K, x1 = 0.9042 | -0.0356
308.15 K, x1 = 0.9264 | -0.0289
308.15 K, x1 = 0.9497 | -0.0213
308.15 K, x1 = 0.9742 | -0.0116
